In patent US20120122965A1, “COMPOSITIONS FOR SKIN PROTECTION AND IMPROVEMENT OF SKIN DISEASES CONTAINING THE DIBENZO-P-DIOXINE DERIVATIVES” (priority 2007, published 2012):

Assays:
[1] = tested on: B-16 cells (mouse melanoma, ATCC CRL 6323); assay: Inhibition of melanin synthesis; format: cell-based; conditions: 50 μg/ml, 3 days, vs solvent control; for inhibition at 50 µg/mL: Mus musculus, B16, 72 h, read-out: Inhibitory effect on melanin synthesis (%)
Method: Catechin, rasveratrol, isoflavone, kojic acid, ascorbic acid, and Moriradicis cortex extracts were used as positive controls.
The B-16 cells (mouse melanoma, ATCC CRL 6323) were maintained in the DMEM medium supplemented 4.5 g/E of glucose, 10% serum, and 1% antibiotic at 37° C. for 24 hours. After the cell was incubated with 0.05% trypsin containing 0.02% EDTA, the cell was plated and incubated for 48 hours. The cells were treated with 50 μg/ml of compositions 1 to 18, or positive controls and incubated at 37° C. for 3 days. The cells were then added with 1 me of lysis buffer (phosphate buffer solution, 0.02% EDTA, 0.05% trypsin) and centrifuged for 5 min After the cells were treated with 5% trichloro acetate (TCA), the farmed melanin was separated and dissolved in 1N NaOH. The absorbance was measured at 475 nm using spectrophotometer. Concentration of melanin was determined by the standard curve of synthetic melanin (SIGMA CO. USA). The cell treated with the same amount of solvent was used as a negative control. The inhibitory effects of each composition on melanin synthesis were determined by following Equation.
{1−(M/M0)}×100 [Equation]
M: amount of melanin of test group or positive controls
M0: amount of melanin of negative control

elastase = assay: Inhibition of elastase; format: biochemical; conditions: 50 μg/ml, 10 nM elastase, 25° C., 10 min
Method: Catechin, rasveratrol, isoflavone, lactokine were used for positive controls. […] The cell treated with the same amount of solvent was used as a negative control. The inhibitory effects of each sample on elastase were determined by following Equation. The results are described in Table 3. {1−(E/E0)}×100 [Equation] E: The absorbance of test group or positive control E0: The absorbance of negative control

[2] = tested on: rat basophilic leukemia cell (RBL-2H3); assay: Inhibition on histamine release (DNP-BSA stimulated); format: cell-based; conditions: 50 μg/ml, RBL-2H3 cells, vs negative control
Method: In order to assess the anti-inflammation and anti-allergic activities of the compositions in the present invention, the inhibitory effects of the compositions on histamine synthesis, which closely related with inflammation including allergy, were investigated. The inhibitory effects of the compositions on histamine synthesis were assessed using the rat basophilic leukemia cell (RBL-2H3) according to the Kawasaki's method. After the cell (1×10^5 cells/well) was cultured in RPMI 1640 medium supplemented with 2% FBS (fetal bovine serum) and rat anti-DNP (dinitrophenol) IgE at 37° C. for 120 min, the cell was washed with the HPEPS buffer to remove the residual IgE. The cells was incubated in either absence (negative control) or presence (test group) of the com[…]. for 10 min. The cell was then treated with DNP-BSA (Dinitrophenol-conjugated Bovine serum albumin), as a histamine release antigen, for 1 hour at 37° C. After the reaction was stopped by adding the HEPES buffer solution, the supernatant was collected and treated with 20 μl of the perchloric acid and centrifuged. The histamine release in the supernatant was measured using the HPLC. The % inhibitions on histamine release of test group were calculated by following Equation compared with negative control. […] H: histamine release of test group H0: histamine release of negative control

[3] = tested on: NHEK (F) cells (normal human epidermal keratinocytes of neonatal foreskin cell); conditions: concentration that reaches 50% of apoptosis, 1 hour incubation
Method: (§1) The cytotoxicity of the compositions to the normal skin cell was assessed using the NHEK (F) cells (normal human epidermal keratinocytes of neonatal foreskin cell) and the NB1RGB cells (normal human fibroblast cell line from skin). NHEK (F) and NB1RGB cells, which are main components of the epidermis and Bemis in normal human skin, produce collagen and elastin and provide skin elasticity.
(§2) The mixture of PMS/WST-1 (1-methoxy-5-methylphenazinium methyl sulfate/2-(4-indophenyl)-3-(4-nitrophenyl)-5-(2,4-disulfo phenyl)-2H-tetrazolium monosodium salt) was added to the medium and incubated for 1 hour to generate soluble formosan, and then the absorbance was measured at 415 nm using spectrophotometer. The cells treated with solvent without the compositions were used as a negative control, whereas the cells treated with 1% (w/v) SDS solution were used as a positive control (100% cell apoptosis).
(§3) apoptosis(%)=(A0−A/A0−As)×100 [Equation]
(§4) A0=absorbance of the cell that was not treated with the composition
(§5) A=absorbance of the cell that was treated with the composition […]
(§6) As=absorbance of the cell that was treated with 1% (w/v) SDS (positive control group)

[4] = tested on: NB1RGB cells (normal human fibroblast cell line from skin); conditions: concentration that reaches 50% of apoptosis, 1 hour incubation
Method: as §1, §2, §3, §4, §5, §6

Hamster sebocyte = assay: Suppression of sebocyte proliferation ([3H] thymidine); format: cell-based; conditions: for % of untreated cell / cell number (×10^3 d.p.m/well): 12 days; for cell number (×10^3 d.p.m/well): control 2.90 ± 0.20
Method: Hamster sebocyte were established from sebaceous glands of auricles of the 5 week-old hamsters according to Sato's method. Sebocytes (2.35×10^4 cells/plate) were cultured in DMEM/F12 medium supplemented with 2% FBS and 2% human serum for 24 hours. The cells were treated with the composition 6 and 14 in different concentrations one time per 3 days for 12 days. The [^3H] thymidine (1 kBq/well) (Amersham Bioscience) was added 3 hours before the final treatment. The amount of [^3H] thymidine combined with DNA was measured by using liquid scintillation counter. The cell proliferation activity was determined as compared with negative control.

[5] = tested on: pro-inflammatory cytokines (IL-1α, IL-1β, IL-6, IL-8, and TNF-α); assay: Suppression of inflammatory gene expression induced by UV exposure in NHEK cells; format: cell-based, human; conditions: 50 μg/ml, UVB 40 mJ, compared with positive control (UVB only), FIG. 3
Method: The anti-inflammation effects of the compositions were investigated by measuring the UVB-induced generation of pro-inflammatory cytokines (IL-1α, IL-1β, IL-6, IL-8, and TNF-α) in the epidermis.
The normal human epidermal keratinocytes (NHEK cell line) were incubated in the keratinocyte-SFM medium (serum-free medium) at 95% humidity in 5% carbon dioxide at 37° C. The cells were placed (3×10^4 cells/wall) into the 96-well plate and allowed to adhere 24 hours. The cells were treated with the composition 6, 16 or green tea extract in the concentration of 50 μg/ml. DMSO (dimethyl sulfoxide) was used as a solvent and the final concentration of DMSO was 0.1% (v/v). After incubation for 24 hours, the cells were was irradiated with UVB (40 mJ/cd). The cultured supernatants were collected 24 hour after UVB irradiation. The concentrations of pro-inflammatory cytokines (IL-1β, IL-6, IL-8, and TNF-α) were deteHnined from Human Inflammation Cytometric Bead Assay kit (Becton Deckinson, San Diego, USA). The concentration of IL-1α was measured using the enzyme immunoassay. The results are described in FIG. 2. The negative control indicates the cells which were neither irradiated nor treated with the compositions, and the positive control means the cells which were only irradiated with UVB without treatment of the compositions.

[6] = tested on: TG (triacyl glycerol) synthesis; assay: Inhibition of TG synthesis in hamster auricles; format: in vivo; conditions: for Relative TG concentration in the skin cell (%) / Relative TG concentration in the skin surface (%): hamster auricles, 200 μl of 10% solution topically once a day for 14 days, control group = 100
Method: The prevention and treatment effects of the compositions on the acne were assessed through the inhibition of TG (triacyl glycerol) synthesis and sebocyte proliferation in hamster model.
The inhibitory effects of the composition 6 and 14 on TG synthesis were assessed as compared with catechin (positive control group). 5 week-old male hamster was divided into three groups (negative control group, test group, positive control group) and housed 10 animals to a cage after the acclimatization for 2 weeks. Animal rooms were maintained at 25±1° C. and 55% of humidity with a 12-hr light/dark cycle. The animals were freely accessed to diet and water throughout the study. The auricles of hamster were topically treated once a day for 14 days with 200 μl of 10% of the composition 6, 14 or catechin. The solvent for topical application was composed of a mixture of ethanol and glycerol (95:5, v/v). The animals in negative control group were treated with the same volume of vehicle. The auricles were separated from the body and the sebum generated on the skin surface was extracted with acetone. The amount of TG in skin surface was calculated from the sebum extracts. Sebocyte were suspended into solution from the auricle tissues using sonicator, and then amount of intercellar TG was determined by automatic thin-layer chromatography using triolate as a standard. The relative TG concentrations of each sample were calculated from comparison with negative control.

[7] = sample concentration 10 (unit not given)
[8] = sample concentration 20 (unit not given)
[9] = sample concentration 40 (unit not given)

Row | Compound | Inhibition of Elastase (%) (elastase) | % Inhibition on histamine release [2] [%] | Inhibitory effect on melanin synthesis (%) [1] [%] | LD50 (μM) NHEK (F) cell [3] [µM] | LD50 (μM) NB1RGB cell [4] [µM] | other results
1 | O=C1O[C@H]([C@@H](O)CO)C(O)=C1O [ascorbic acid, reference compound] |  |  |  |  |  | inhibition at 50 µg/mL [1]: 65.3%
2 | Oc1cc(O)cc(Oc2c(O)cc(O)c3c2Oc2c(O)cc(O)cc2O3)c1 [composition 1] | 87.4 | 60.4 | 84.3 | 56.4 | 110.4 | 
3 | Oc1cc(O)cc(Oc2c(O)cc(O)c3c2Oc2c(O)cc(Oc4c(O)cc(Oc5c(O)cc(O)c6c5Oc5c(O)cc(O)cc5O6)cc4O)cc2O3)c1 [composition 2] | 86.4 | 70.3 | 82.0 | 48.9 | 150.3 | 
4 | Oc1cc(O)cc(Oc2c(O)cc(O)c3c2Oc2c(O)cc4oc5c(Oc6cc(O)cc(O)c6)c(O)cc(O)c5c4c2O3)c1 [composition 4] | 85.4 | 80.3 | 82.3 |  |  | 
5 | Oc1cc(O)cc(Oc2c(O)cc(O)c3c2Oc2c(O)cc(O)c(-c4c(O)cc(O)c5c4Oc4c(O)cc(O)c(Oc6cc(O)cc(O)c6)c4O5)c2O3)c1 [composition 5] | 90.4 | 77.4 | 83.5 | 100.4 |  | 
6 | Oc1cc(O)cc(Oc2c(O)cc(O)c3c2Oc2c(cc(O)c(-c4c(O)cc5c(c4O)Oc4c(Oc6cc(O)cc(O)c6)c(O)cc(O)c4O5)c2O)O3)c1 [composition 6] | 89.9 | 75.9 | 89.8 | 105.4 | 97.3 | sebocyte proliferation (Hamster sebocyte; Table 9, in words): significantly suppressed sebocyte proliferation; % of untreated cell (Hamster sebocyte; [7]): 78.4%; cell number (×10^3 d.p.m/well) (Hamster sebocyte; [7]): 2.26 ± 0.67 ×10^3 d.p.m/well; % of untreated cell (Hamster sebocyte; [8]): 30.2%; cell number (×10^3 d.p.m/well) (Hamster sebocyte; [8]): 0.87 ± 0.07 ×10^3 d.p.m/well; % of untreated cell (Hamster sebocyte; [9]): 10.4%; cell number (×10^3 d.p.m/well) (Hamster sebocyte; [9]): 0.30 ± 0.05 ×10^3 d.p.m/well; levels of pro-inflammatory cytokines [5]: significantly decrease levels of pro-inflammatory cytokines; sebum production on skin surface and in the skin cell ([6]; compared with negative control): significantly decrease sebum production; Relative TG concentration in the skin cell (%) [6]: 54.9%; Relative TG concentration in the skin surface (%) [6]: 66.2%
7 | Oc1cc(O)cc(Oc2c(O)cc(O)c3c2Oc2c(O)cc4oc5cc(O)cc(O)c5c4c2O3)c1 [composition 7] | 88.7 | 70.8 | 80.5 | 78.9 | 100.4 | 
8 | Oc1cc(O)cc(Oc2cc(O)c3c(c2)Oc2c(O)cc(O)c(Oc4cc(O)cc(O)c4)c2O3)c1 [composition 8] | 87.7 | 62.9 | 87.6 | 93.2 | 104.8 | 
9 | Oc1cc(O)cc(Oc2c(Oc3c(O)cc(O)cc3O)cc(O)c3c2Oc2c(O)cc(O)cc2O3)c1 [composition 9] | 82.7 | 72.1 | 84.3 | 57.2 | 114.3 | 
10 | Oc1cc(O)cc(Oc2c(O)cc(O)c3c2Oc2c(O)cc(O)c(-c4c(O)cc(O)c5c4Oc4c(O)cc(Oc6c(O)cc(O)cc6O)c(Oc6cc(O)cc(O)c6)c4O5)c2O3)c1 [composition 10] | 88.1 | 83.2 | 92.1 | 48.2 |  | 
11 | O=c1c(-c2ccccc2)coc2ccccc12 [isoflavone, reference compound] | 38.3 |  |  |  |  | inhibition at 50 µg/mL [1]: 64.3%
12 | O=c1cc(CO)occ1O [kojic acid, reference compound] |  |  |  |  |  | inhibition at 50 µg/mL [1]: 60.3%
13 | Oc1ccc(/C=C/c2cc(O)cc(O)c2)cc1 [rasveratrole, reference compound] | 48.3 |  | 40.9 |  |  | 
14 | catechin [reference compound] | 50.4 |  | 50.4 |  |  | Relative TG concentration in the skin cell (%) [6]: 110.4%; Relative TG concentration in the skin surface (%) [6]: 108.2%
